Counter-ions that a name gives are not always drawn.

The values that follow come from patent US8501786B2, “Hydroxymethyl pyrrolidines as beta 3 adrenergic receptor agonists” (Merck Sharp & Dohme Corp., priority 2009, dated 2013).

The first experiment deals with T1, human β3 adrenergic receptor (Homo sapiens, UniProt P13945).
T1 construct: stably transfected with the cloned β-adrenergic receptor (β1, β2 or β3); expressed in transfected cells; host or cells: Chinese hamster ovary (CHO) cells, stably transfected
T1 sequence (P13945 whole entry): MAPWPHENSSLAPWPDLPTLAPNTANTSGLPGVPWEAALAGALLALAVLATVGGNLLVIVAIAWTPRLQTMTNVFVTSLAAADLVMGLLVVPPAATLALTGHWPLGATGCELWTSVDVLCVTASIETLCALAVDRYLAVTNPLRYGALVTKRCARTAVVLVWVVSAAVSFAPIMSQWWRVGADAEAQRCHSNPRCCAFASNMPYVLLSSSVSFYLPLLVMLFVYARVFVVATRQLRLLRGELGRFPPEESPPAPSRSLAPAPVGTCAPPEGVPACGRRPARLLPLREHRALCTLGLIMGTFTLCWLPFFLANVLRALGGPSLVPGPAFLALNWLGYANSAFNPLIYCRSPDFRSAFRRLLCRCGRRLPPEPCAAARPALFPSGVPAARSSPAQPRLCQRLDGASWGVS
Put plainly: Functional assay: cAMP production (LANCE TR-FRET) in CHO cells stably transfected with cloned β3 adrenergic receptor. It is filed as cell-based. The settings on record: Table 2; cAMP production, CHO cells expressing human β3 AR; read-out: Human β3 functional. (In general: Cyclic AMP is a second messenger, typically raised through Gs and lowered through Gi signalling.)
Turning to `O=C(Cc1c(F)cccc1F)Nc1ccc(CC2CC[C@H]([C@H](O)c3cccnc3)N2)cc1` (stereo partly drawn) [Example 78], the EC50 fell in the range of 1 to 10 nM. As to `O=C(Nc1ccc(CC2CC[C@H]([C@H](O)c3cccnc3)N2)cc1)[C@@H]1CCCN1c1nccs1` (stereo partly drawn) [Example 30], the EC50 lay within 1 to 10 nM. For `Cc1nc(CC(=O)Nc2ccc(CC3CC[C@H]([C@H](O)c4cccnc4)N3)cc2)c(C)s1` (stereo partly drawn) [Example 10], the EC50 lay in the range of 11 to 100 nM. Still for that read-out and setting: next, `Cc1nonc1CC(=O)Nc1ccc(CC2CC[C@H]([C@H](O)c3cccnc3)N2)cc1` (stereo partly drawn) [Example 68]: 11 to 100 nM.

For `O=C(Cc1csc(C(F)(F)F)n1)Nc1ccc(CC2CC[C@H]([C@H](O)c3cccnc3)N2)cc1` (stereo partly drawn) [Example 29], the EC50 was 11 to 100 nM.

For the compound `O=C(Cn1ncc2ccccc21)Nc1ccc(CC2CC[C@H]([C@H](O)c3cccnc3)N2)cc1` (stereo partly drawn) [Example 5], the EC50 was in the range of 11 to 100 nM. Same read-out and setting: next, `CC1=NN(CC(=O)Nc2ccc(CC3CC[C@H]([C@H](O)c4cccnc4)N3)cc2)C(=O)C1` (stereo partly drawn) [Example 70]: 11 to 100 nM. Take `Cc1sc2ncn(CC(=O)Nc3ccc(CC4CC[C@H]([C@H](O)c5cccnc5)N4)cc3)c(=O)c2c1C` (stereo partly drawn) [Example 21]: the EC50 lay within 1 to 10 nM. The same measure, in the same setting: next, `O=C(Cc1n[nH]c(=O)[nH]1)Nc1ccc(CC2CC[C@H]([C@H](O)c3cccnc3)N2)cc1` (stereo partly drawn) [Example 73]: 11 to 100 nM. Still for that read-out and setting: next, `Cc1cccc(CC(=O)Nc2ccc(CC3CC[C@H]([C@H](O)c4cccnc4)N3)cc2)n1` (stereo partly drawn) [Example 28]: 101 to 1000 nM. On to `O=C(Nc1ccc(CC2CC[C@H]([C@H](O)c3cccnc3)N2)cc1)c1ccccc1-c1ncc[nH]1` (stereo partly drawn) [Example 33], for which the EC50 fell in the range of 11 to 100 nM.

As for `Cc1cn(CC(=O)Nc2ccc(CC3CC[C@H]([C@H](O)c4cccnc4)N3)cc2)c(=O)[nH]c1=O` (stereo partly drawn) [Example 62], the EC50 lay in the range of 11 to 100 nM. For `Nc1ncncc1CC(=O)Nc1ccc(CC2CC[C@H]([C@H](O)c3cccnc3)N2)cc1` (stereo partly drawn) [Example 49], the EC50 fell in the range of 11 to 100 nM. For `O=C(Nc1ccc(CC2CC[C@H]([C@H](O)c3cccnc3)N2)cc1)c1ccccc1-c1nc2ccccc2s1` (stereo partly drawn) [Example 34], the EC50 was 11 to 100 nM.

For `O=C(Cn1cnc2ccccc2c1=O)Nc1ccc(CC2CC[C@H]([C@H](O)c3cccnc3)N2)cc1` (single isomer, unassigned) [Example 64], the EC50 was 1 to 10 nM.

Turning to `O=C(CN1CCCOC1=O)Nc1ccc(CC2CC[C@H]([C@H](O)c3cccnc3)N2)cc1` (stereo partly drawn) [Example 85], the EC50 fell in the range of 11 to 100 nM.

Staying with this experiment, now noted: Table 3; cAMP production, CHO cells expressing human β3 AR; read-out: Human β3 functional.
With `O=C(Cc1nc2c(s1)CCC2C(=O)Nc1ccc(CC2CC[C@H]([C@H](O)c3cccnc3)N2)cc1)NCc1ccccc1` (single isomer, unassigned) [Example 136], the EC50 fell in the range of 1 to 10 nM. Consider `CC(C(=O)Nc1ccc(CC2CC[C@H]([C@H](O)c3cccnc3)N2)cc1)n1cnc2ccccc2c1=O` (single isomer, unassigned) [Example 218], for which the EC50 is 1 to 10 nM. Turning to `Cc1ccn(C(C)C(=O)Nc2ccc(CC3CC[C@H]([C@H](O)c4cccnc4)N3)cc2)n1` (single isomer, unassigned) [Example 99], the EC50 fell in the range of 11 to 100 nM. In the case of `CCC(C(=O)Nc1ccc(CC2CC[C@H]([C@H](O)c3cccnc3)N2)cc1)c1cscn1` (single isomer, unassigned) [Example 204], the EC50 lay within 1 to 10 nM. Take `CC(C(=O)Nc1ccc(CC2CC[C@H]([C@H](O)c3cccnc3)N2)cc1)c1csc(N)n1` (single isomer, unassigned) [Example 106]: the EC50 is 1 to 10 nM. In the case of `CC(C(=O)Nc1ccc(CC2CC[C@H]([C@H](O)c3cccnc3)N2)cc1)n1cccnc1=O` (single isomer, unassigned) [Example 166], the EC50 is 1 to 10 nM. Still for that read-out and setting: next, `Cc1cc(C(C)C(=O)Nc2ccc(CC3CC[C@H]([C@H](O)c4cccnc4)N3)cc2)[nH]n1` (single isomer, unassigned) [Example 176]: 11 to 100 nM. Consider `CC(C(=O)Nc1ccc(CC2CC[C@H]([C@H](O)c3cccnc3)N2)cc1)n1ccc(C(N)=O)n1` (single isomer, unassigned) [Example 202], for which the EC50 is 1 to 10 nM. Still for that read-out and setting: next, `CC(C(=O)Nc1ccc(CC2CC[C@H]([C@H](O)c3cccnc3)N2)cc1)c1cscn1` (single isomer, unassigned) [Example 195]: less than 1 nM; `Cc1nc(C(C)C(=O)Nc2ccc(CC3CC[C@H]([C@H](O)c4cccnc4)N3)cc2)cs1` (single isomer, unassigned) [Example 101]: 1 to 10 nM. Still for that read-out and setting: in the case of `O=C(Nc1ccc(CC2CC[C@H]([C@H](O)c3cccnc3)N2)cc1)[C@H]1CCc2nnnn21` (stereo partly drawn) [Example 173] it was 1 to 10 nM; in that of `CC(C(=O)Nc1ccc(CC2CC[C@H]([C@H](O)c3cccnc3)N2)cc1)n1cccn1` (single isomer, unassigned) [Example 97], 11 to 100 nM.

Regarding `CC(C(=O)Nc1ccc(CC2CC[C@H]([C@H](O)c3cccnc3)N2)cc1)c1csc(C(F)(F)F)n1` (single isomer, unassigned) [Example 111], the EC50 was in the range of 11 to 100 nM. Same read-out and setting: next, `O=C(Nc1ccc(CC2CC[C@H]([C@H](O)c3cccnc3)N2)cc1)C1CCc2scnc21` (single isomer, unassigned) [Example 190]: less than 1 nM; `Cc1nc2c(s1)CCC2(C)C(=O)Nc1ccc(CC2CC[C@H]([C@H](O)c3cccnc3)N2)cc1` (single isomer, unassigned) [Example 130]: 101 to 1000 nM; `COC(=O)c1cn(C(C)C(=O)Nc2ccc(CC3CC[C@H]([C@H](O)c4cccnc4)N3)cc2)nn1` (single isomer, unassigned) [Example 150]: 1 to 10 nM. On to `O=C(Nc1ccc(CC2CC[C@H]([C@H](O)c3cccnc3)N2)cc1)[C@@H]1CCc2nnnn21` (stereo partly drawn) [Example 172], for which the EC50 was in the range of 1 to 10 nM.

`CCCC(C(=O)Nc1ccc(CC2CC[C@H]([C@H](O)c3cccnc3)N2)cc1)c1csc(N)n1` (single isomer, unassigned) [Example 108]: the EC50 was 1 to 10 nM. On to `Cc1noc2c1CCC2C(=O)Nc1ccc(CC2CC[C@H]([C@H](O)c3cccnc3)N2)cc1` (single isomer, unassigned) [Example 169], for which the EC50 lay within 11 to 100 nM.

Turning to `Cc1cn(C(C)C(=O)Nc2ccc(CC3CC[C@H]([C@H](O)c4cccnc4)N3)cc2)nn1` (single isomer, unassigned) [Example 210], the EC50 was 11 to 100 nM. The same measure, in the same setting: in the case of `Cc1cnnn1C(C)C(=O)Nc1ccc(CC2CC[C@H]([C@H](O)c3cccnc3)N2)cc1` (single isomer, unassigned) [Example 213] it was 1 to 10 nM; in that of `CC(C(=O)Nc1ccc(CC2CC[C@H]([C@H](O)c3cccnc3)N2)cc1)c1cnccn1` (single isomer, unassigned) [Example 144], 1 to 10 nM; in that of `CC(C(=O)Nc1ccc(CC2CC[C@H]([C@H](O)c3cccnc3)N2)cc1)n1cc(C(N)=O)nn1` (single isomer, unassigned) [Example 201], 1 to 10 nM. As for `Cc1nc2c(s1)CCC2C(=O)Nc1ccc(CC2CC[C@H]([C@H](O)c3cccnc3)N2)cc1` (single isomer, unassigned) [Example 117], the EC50 fell in the range of 11 to 100 nM. Regarding `O=C(Nc1ccc(CC2CC[C@H]([C@H](O)c3cccnc3)N2)cc1)C1CCc2sc(F)nc21` (single isomer, unassigned) [Example 157], the EC50 was in the range of 1 to 10 nM. Still for that read-out and setting: in the case of `CC(C)c1nc2c(s1)CCC2C(=O)Nc1ccc(CC2CC[C@H]([C@H](O)c3cccnc3)N2)cc1` (single isomer, unassigned) [Example 123] it was 101 to 1000 nM; in that of `O=C(Nc1ccc(CC2CC[C@H]([C@H](O)c3cccnc3)N2)cc1)C1CCc2scnc21` (single isomer, unassigned) [Example 191], 11 to 100 nM; in that of `Nc1nc2c(s1)CCC2C(=O)Nc1ccc(CC2CC[C@H]([C@H](O)c3cccnc3)N2)cc1` (single isomer, unassigned) [Example 113], less than 1 nM.

Still in this experiment, the particulars now being: Table 4; cAMP production, CHO cells expressing human β3 AR; read-out: Human β3 functional.
Regarding `N#Cc1ccc(S(=O)(=O)Nc2ccc(CC3CC[C@H]([C@H](O)c4cccnc4)N3)cc2)cc1` (stereo partly drawn) [Example 237], the EC50 was 101 to 1000 nM. The same measure, in the same setting: in the case of `O=S(=O)(Nc1ccc(CC2CC[C@H]([C@H](O)c3cccnc3)N2)cc1)c1ccccc1I` (stereo partly drawn) [Example 238] it was 101 to 1000 nM. `O=S(=O)(Nc1ccc(CC2CC[C@H]([C@H](O)c3cccnc3)N2)cc1)c1ccc2cnccc2c1` (stereo partly drawn) [Example 228]: the EC50 lay within 101 to 1000 nM. Same read-out and setting: next, `O=S(=O)(Nc1ccc(CC2CC[C@H]([C@H](O)c3cccnc3)N2)cc1)c1ccc2ccccc2c1` (stereo partly drawn) [Example 225]: 11 to 100 nM.

Staying with this experiment, now noted: Table 5; human β3 functional activity given as ranges; read-out: Human β3 functional.
`Nc1nc(CC(=O)Nc2ccc(CC3CC[C@H]([C@H](O)c4cccnc4)N3)cc2Br)cs1` (stereo partly drawn) [Example 242]: the EC50 was 101 to 1000 nM.

Staying with this experiment, now noted: Table 6; human β3 functional activity given as ranges; read-out: Human β3 functional.
As to `CC(C(=O)Nc1ccc(C[C@@H]2CC[C@H]([C@H](O)c3cccnc3)N2)cc1)N(C)C(=O)c1ccccc1F` (stereo partly drawn) [Example 261], the EC50 is 11 to 100 nM. On the same count and under the same terms, next, `CC(NC(=O)c1cccc(F)c1F)C(=O)Nc1ccc(C[C@@H]2CC[C@H]([C@H](O)c3cccnc3)N2)cc1` (stereo partly drawn) [Example 255]: less than 1 nM; `CC(NC(=O)c1cnccn1)C(=O)Nc1ccc(C[C@@H]2CC[C@H]([C@H](O)c3cccnc3)N2)cc1` (stereo partly drawn) [Example 253]: 11 to 100 nM.

Still in this experiment, the particulars now being: cAMP production, CHO cells expressing human β3 AR; read-out: human Beta-3 agonist functional activity.
As for `O=C(Nc1ccc(CC2CCC(C(O)c3cccnc3)N2)cc1Br)C1CCc2sc(Br)nc21` (single isomer, unassigned) [Example 241, (4S or 4R)-2-bromo-N-[2-bromo-4-({(2S,5R)-5-[(R)-hydroxy(pyridin-3-yl)methyl]pyrrolidin-2-yl}methyl)phenyl]-5,6-dihydro-4H-cyclopenta[d][1,3]thiazole-4-carboxamide], the EC50 is less than 100 nM. For the compound `C[C@H](C(=O)Nc1ccc(C[C@@H]2CC[C@H]([C@H](O)c3cccnc3)N2)cc1)n1ccccc1=O` (single isomer, unassigned) [Example 96, trifluoroacetic acid salt], the EC50 is less than 10 nM.
